{"source": "patent US20050271637A1", "about": "“BMP-2 estrogen responsive element and methods of using the same” (priority 2002, published 2005)", "key": {"mouse BMP-2 mRNA [1]": {"tested_on": "mouse BMP-2 mRNA", "experiment": "Real-time RT-PCR of BMP-2 mRNA in bone marrow MSCs from OVX mice", "type": "cell-based", "details": "100 nM E2, 24 hr", "method": "Two months old Swiss-Webster female mice (ICR) were OVX in accordance with mandated standards of humane care, and the animals were maintained in accordance with the NIH Guide for the Care and Use of Laboratory Animals. After 5 months post-surgery, bone marrow was isolated from femurs and tibias, and the MSCs were cultured as described previously (Gazit et al. 1999 and Zhou et al. 2001). The bone marrow cells were maintained in DMEM (Phenol red free, 1.0 g/L glucose, Biological Industries, Israel) with 15% FBS (Charcoal stripped, heat-inactivated), 100 units/ml penicillin, 100 μg/ml streptomycin, and 2 mM glutamine. […]\n(§1) RNA was isolated using TRizol Reagent (Life Technologies, USA), according to the manufacturer's protocol. Semi-quantitative RT-PCR was performed as described previously (Zhou et al. 2001). […]\nReal-Time PCR was performed using a Roche LightCycler according to the manufacturer's protocol (Roche Molecular Biochemicals, USA). […] Fluoresence was measured at 82° C. for 5 s. To quantify the copy number of the mouse BMP-2 mRNA in MSCs, pGEM-T-mouse BMP-2 plasmids ([…]) were used in standard curve.\nAll experiments were performed three to five times independently. […] The semi-quantitative RT-PCR and real-time RT-PCR were performed 3 times in independent experiments using total RNA that was isolated from MSCs derived from 3-6 animals each time. […]"}, "mouse BMP-2 mRNA [2]": {"tested_on": "mouse BMP-2 mRNA", "experiment": "Semi-quantitative RT-PCR of BMP-2 mRNA in MSCs from OVX mice", "type": "cell-based", "details": "for BMP-2 mRNA expression, effect of the substance alone: E2 100 nM, ICI 10 μM, tamoxifen 1.0 μM, raloxifene 100 nM", "method": "(§2) Two months old Swiss-Webster female mice (ICR) were OVX in accordance with mandated standards of humane care, and the animals were maintained in accordance with the NIH Guide for the Care and Use of Laboratory Animals. After 5 months post-surgery, bone marrow was isolated from femurs and tibias, and the MSCs were cultured as described previously (Gazit et al. 1999 and Zhou et al. 2001). The bone marrow cells were maintained in DMEM (Phenol red free, 1.0 g/L glucose, Biological Industries, Israel) with 15% FBS (Charcoal stripped, heat-inactivated), 100 units/ml penicillin, 100 μg/ml streptomycin, and 2 mM glutamine. At day 4, the cultures were supplemented with 50 μg/ml ascorbic acid, 10 mM β-glycerophosphate, and 10 nM dexamethasone. From day 10, the cells were cultured in DMEM with 2% charcoal stripped (CS)-FBS without osteogenic supplements. […] RNA then was isolated at day 12. […] Mouse C3H10T1/2 cells were cultivated in DMEM (Sigma and Biological Industries) with 10% FBS, 100 units/ml penicillin, 100 μg/ml streptomycin, and 2 mM glutamine.\nRNA was isolated using TRizol Reagent (Life Technologies, USA), according to the manufacturer's protocol. Semi-quantitative RT-PCR was performed as described previously (Zhou et al. 2001). Mouse BMP-2 (505 bp) (Zhou et al. 2001), internal control RPL19 (190 bp) (Orly et al. 1994) and c-myc (550 bp) (Goswami et al. 1997) primers were described previously. The PCR conditions used for mouse BMP-2 RT-PCR were 30 cycles of 94 C for 1 min, 55 C for 1 min and 72 for 2 min in an MJ MiniCycler (MJ Research, USA). RT-PCR products of mouse BMP-2 were cloned into the pGEM-T Easy vector (A1360, Promega), and the pGEM-T-mouse BMP-2 vectors were sequenced by a T7 sequence sequencing kit (US70770, USB, Cleveland, USA) according to the manufacturer's protocols. DNA sequence analysis confirmed that mouse BMP-2 had been amplified.\nAll experiments were performed three to five times independently. Data re presented as the mean values±the standard error of the mean. The semi-quantitative RT-PCR and real-time RT-PCR were performed 3 times in independent experiments using total RNA that was isolated from MSCs derived from 3-6 animals each time. Quantitative data were analyzed using either the non-parameteric Mann-Whitney test or the ANOVA test."}, "c-myc mRNA": {"tested_on": "c-myc mRNA", "experiment": "Semi-quantitative RT-PCR of c-myc mRNA in MSCs from OVX mice", "type": "cell-based, mouse", "details": "5.0 μM cycloheximide", "method": "as §2, §1"}, "human ERβ": {"target": "human ERβ (Homo sapiens, UniProt Q92731)", "sequence (Q92731 46-530 limits assumed)": "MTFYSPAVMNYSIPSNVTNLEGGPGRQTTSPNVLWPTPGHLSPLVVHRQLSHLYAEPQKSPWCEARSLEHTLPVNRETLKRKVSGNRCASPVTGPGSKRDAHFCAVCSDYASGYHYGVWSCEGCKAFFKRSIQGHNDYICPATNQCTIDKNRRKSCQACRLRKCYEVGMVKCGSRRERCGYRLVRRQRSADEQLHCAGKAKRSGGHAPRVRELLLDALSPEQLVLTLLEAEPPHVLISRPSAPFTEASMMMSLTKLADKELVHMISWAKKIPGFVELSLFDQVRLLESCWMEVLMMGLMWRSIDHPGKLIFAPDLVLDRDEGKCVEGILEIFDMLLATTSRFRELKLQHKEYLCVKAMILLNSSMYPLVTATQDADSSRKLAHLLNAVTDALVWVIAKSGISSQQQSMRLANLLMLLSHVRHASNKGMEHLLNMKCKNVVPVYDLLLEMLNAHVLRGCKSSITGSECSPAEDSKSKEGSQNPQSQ", "experiment": "Mouse BMP-2 promoter-luciferase assay in C3H10T1/2 cells co-transfected with human ERβ", "details": "24 hr; E2 different doses or 10 nM, raloxifene 100 nM, tamoxifen 1.0 μM, genistein 100 nM"}}, "note": "Entries after “also recorded” stand apart in the source; their conditions may differ.", "data": [{"smiles": "C[C@]12CC[C@@H]3c4ccc(O)cc4CC[C@H]3[C@@H]1CC[C@@H]2O", "note": "[E2, estradiol]", "values": [{"measurement": "increase of mouse BMP-2 mRNA levels", "setting": "mouse BMP-2 mRNA [1]; versus untreated", "result": 2.4, "unit": "fold"}, {"measurement": "mouse BMP-2 mRNA levels", "setting": "mouse BMP-2 mRNA [1]; in 2 μg of total RNA, untreated 570±81 copies, p<0.05, ANOVA", "result": "1337±177", "unit": "copies"}]}, {"smiles": "C[C@]12CC[C@@H]3c4ccc(O)cc4C[C@@H](CCCCCCCCC[S+]([O-])CCCC(F)(F)C(F)(F)F)[C@H]3[C@@H]1CC[C@@H]2O", "note": "(stereo partly drawn) [ICI-182,780]", "values": [{"measurement": "BMP-2 mRNA expression, effect of the substance alone", "setting": "mouse BMP-2 mRNA [2]; 24 hr, listed as ICI", "result": "had no effect; also recorded: failed to activate"}, {"measurement": "effect on up-regulation of BMP-2 mRNA expression by E2", "setting": "mouse BMP-2 mRNA [2]; ICI 10 μM with E2 100 nM, 24 hr, listed as ICI", "result": "blocked; also recorded: inhibited"}]}, {"smiles": "C[C@@H]1C[C@@H]([C@H](O)CC2CC(=O)NC(=O)C2)C(=O)[C@@H](C)C1", "note": "[cycloheximide]", "values": [{"measurement": "c-myc mRNA levels", "setting": "c-myc mRNA", "result": "super-induction; also recorded: superinduction"}, {"measurement": "effect on up-regulation of BMP-2 mRNA by E2", "setting": "mouse BMP-2 mRNA [2]; 5.0 μM cycloheximide added 45 min before 100 nM E2, RNA 4 hr after E2", "result": "did not block"}]}, {"smiles": "O=C(c1ccc(OCCN2CCCCC2)cc1)c1c(-c2ccc(O)cc2)sc2cc(O)ccc12", "note": "[raloxifene]", "values": [{"measurement": "full-length mouse BMP-2 promoter (−2712) activity via ERβ", "setting": "human ERβ", "result": "not via ERβ"}, {"measurement": "BMP-2 mRNA expression, effect of the substance alone", "setting": "mouse BMP-2 mRNA [2]; 24 hr", "result": "failed to activate"}]}, {"smiles": "CC/C(=C(\\c1ccccc1)c1ccc(OCCN(C)C)cc1)c1ccccc1", "note": "[tamoxifen]", "values": [{"measurement": "BMP-2 mRNA expression, effect of the substance alone", "setting": "mouse BMP-2 mRNA [2]; 24 hr", "result": "failed to activate"}]}]}
